Calls of active or inactive are those of the source. The calls are words filed in the database; no cut-off is given here.
Legend:
[1] = target: T1, Tyrosine-protein phosphatase non-receptor type 1 (Homo sapiens) (UniProt P18031); experiment: Inhibition of PTP1B (unknown origin) assessed as inhibition constant for uncompetitive inhibition using pNPP as substrate by spectrophotometric analysis
T1 sequence (whole entry): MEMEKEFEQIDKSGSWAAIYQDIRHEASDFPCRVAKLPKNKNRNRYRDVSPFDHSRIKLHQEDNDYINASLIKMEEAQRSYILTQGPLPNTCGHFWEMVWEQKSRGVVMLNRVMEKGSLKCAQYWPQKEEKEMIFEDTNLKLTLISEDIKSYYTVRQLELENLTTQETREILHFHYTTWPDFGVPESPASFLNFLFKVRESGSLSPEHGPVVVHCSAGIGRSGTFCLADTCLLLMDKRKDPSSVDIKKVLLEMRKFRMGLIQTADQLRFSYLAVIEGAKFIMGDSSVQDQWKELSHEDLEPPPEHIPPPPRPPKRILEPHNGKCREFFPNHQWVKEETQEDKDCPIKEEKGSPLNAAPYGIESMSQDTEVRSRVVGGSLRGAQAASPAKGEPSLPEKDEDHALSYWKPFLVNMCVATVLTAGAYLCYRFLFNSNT

[2] = target: T2, Tyrosine-protein phosphatase non-receptor type 1 (Homo sapiens, UniProt P18031); experiment: Inhibition of PTP1B (unknown origin) assessed as inhibition constant using pNPP as substrate by spectrophotometric analysis
T2 sequence (P18031 whole entry): T1 sequence (whole entry)

[3] = target: T1, Tyrosine-protein phosphatase non-receptor type 1 (Homo sapiens); experiment: Inhibition of PTP1B (unknown origin) at 40 uM using pNPP as substrate by spectrophotometric analysis
Rattus norvegicus = experiment: Hypoglycemic activity in high fat diet-fed induced type 2 diabetic mellitus Wistar rat model assessed as blood glucose level at 60 mg/kg, ip by glucose tolerance test; format: functional
[4] = target: T1, Tyrosine-protein phosphatase non-receptor type 1 (Homo sapiens); experiment: Mixed type inhibition of PTP1B (unknown origin) using varying levels of pNPP as substrate by Lineweaver-Burk plot analysis
[5] = target: T1, Tyrosine-protein phosphatase non-receptor type 1 (Homo sapiens); experiment: Inhibition of PTP1B (unknown origin) at 20 uM using pNPP as substrate by spectrophotometric analysis

Compound | alphaKi [1] [µM] | Ki [2] [µM] | inhibition [3] [%] | inhibition [4] | inhibition [5] | Activity (Rattus norvegicus) [%]
O=C(CSc1nc2cc(Oc3cccc4ccccc34)ccc2[nH]1)Nc1ccc(C(=O)O)cc1 | 124 | 30.2 | 40 | Active | – | 19
O=C(CSc1nc2cc(Oc3cccc4ccccc34)ccc2[nH]1)Nc1nccs1 | – | – | – | – | inactive | –
O=C(CSc1nc2cc(Oc3ccc4ccccc4c3)c(Cl)cc2[nH]1)Nc1nccs1 | – | – | – | – | inactive | –
CCOc1cc2nc(SCC(=O)Nc3ccc(C(=O)O)cc3)[nH]c2cc1Cl | – | – | 0 | – | – | –
O=C(CSc1nc2cc(Oc3ccc4ccccc4c3)c(Cl)cc2[nH]1)Nc1ccc(C(=O)O)cc1 | 37.8 | 12.6 | 75 | Active | – | 28
CCOC(=O)c1ccc(NC(=O)CSc2nc3cc(Oc4cccc5ccccc45)ccc3[nH]2)cc1 | – | – | – | – | inactive | –
O=C(CSc1nc2cc(Oc3cccc4ccccc34)ccc2[nH]1)Nc1ccccc1C(=O)O | 60.6 | 23.3 | 45 | Active | – | 15

More lines, main results first:

alphaKi [1] [µM] | Ki [2] [µM] | inhibition [3] [%] | inhibition [4] | inhibition [5] | Compound | Activity (Rattus norvegicus) [%]
– | – | – | – | inactive | Cc1cc(NC(=O)CSc2nc3cc(Oc4ccc5ccccc5c4)ccc3[nH]2)on1 | –
– | – | – | – | inactive | CCOC(=O)c1ccc(NC(=O)CSc2nc3cc(Oc4ccc5ccccc5c4)ccc3[nH]2)cc1 | –
– | – | – | – | inactive | O=C(CSc1nc2cc(Oc3ccc4ccccc4c3)ccc2[nH]1)Nc1nccs1 | –
113 | 35.2 | 30 | Active | – | O=C(CSc1nc2cc(Oc3ccc4ccccc4c3)ccc2[nH]1)Nc1ccc(C(=O)O)cc1 | 23
– | – | – | – | inactive | CCOC(=O)c1csc(NC(=O)CSc2nc3cc(Oc4ccc5ccccc5c4)ccc3[nH]2)n1 | –

Source: ChEMBL document CHEMBL4840340, “Design, synthesis, kinetic, molecular dynamics, and hypoglycemic effect characterization of new and potential selective benzimidazole derivatives as Protein Tyrosine Phosphatase 1B inhibitors” (Bioorg Med Chem, 2021)
